# Earlier results, collected in patent US11717498B2, “Methods of treatment using amphetamine controlled release, prodrug, and abuse deterrent dosage forms” (CHEMAPOTHECA, LLC, priority 2013, dated 2023).
# Conditions: l-form versus d-form
smiles,measurement,value
"CC(C)NC[C@H](O)COc1cccc2ccccc12 [l-form of propranolol, propranolol]",potency relative to the d-form,about 100 times
